Where “and” joins values, the source holds several entries; their conditions need not be identical. Equal values may be shown once.
Experiments:
serum cortisol = test: Serum cortisol (pharmacodynamic response); format: in vivo, human; settings: for Serum cortisol percent change from baseline / Cortisol, Mean Observed / Cortisol, Mean Percent Change from Baseline: Part 2; for Serum cortisol percent change from baseline, range across active arms / Cortisol, Mean (SD) Observed / Cortisol, Mean (SD) Percent Change from Baseline: Part 1
Excerpt: (§1) PK/PD Analysis Set includes all subjects in the SAF who have sufficient data available for the analysis of pharmacokinetic and pharmacodynamic measurements. In the analyses based on PKPD, subjects will be analyzed according to the actual treatment received.

11-deoxycortisol = test: Plasma 11-deoxycortisol (pharmacodynamic response); format: in vivo, human; settings: for 11-Deoxycortisol, Mean (SD) Observed / 11-Deoxycortisol, Mean (SD) Percent Change from Baseline: Part 1; for 11-Deoxycortisol, Mean Observed / 11-Deoxycortisol, Mean Percent Change from Baseline: Part 2
Excerpt: as §1

**Q.** Which results are given for `CC(=O)N[C@H]1CC[C@H](NC(=O)CN2CCN(c3nncc(-c4ccc(C)cc4)n3)CC2)CC1` [Compound A HBr]?
**A.** Serum cortisol percent change from baseline (serum cortisol; 100 mg QD, Week 4): 20.1%; Serum cortisol percent change from baseline (serum cortisol; 100 mg QD, Week 8): 153.4%; Serum cortisol percent change from baseline (serum cortisol; 100 mg QD, Week 12): 1.5%; Serum cortisol percent change from baseline, range across active arms (serum cortisol; Week 4): 3.8% to 19.2%; Serum cortisol percent change from baseline, range across active arms (serum cortisol; Week 8): 20.6% to 51.4%; Serum cortisol percent change from baseline, range across active arms (serum cortisol; Week 12, listed as lorundrostat): −1.2% to 22.7% and −1.2 to 22.6%; Cortisol, Mean (SD) Observed (serum cortisol; Wk 4, 12.5 mg BID): 10.895 (3.859) μg/dL; Cortisol, Mean (SD) Percent Change from Baseline (serum cortisol; Wk 4, 12.5 mg BID): 10.26 (45.03) %; Cortisol, Mean (SD) Observed (serum cortisol; Wk 4, 12.5 mg QD): 9.305 (4.164) μg/dL; Cortisol, Mean (SD) Percent Change from Baseline (serum cortisol; Wk 4, 12.5 mg QD): 7.47 (37.82) %; Cortisol, Mean (SD) Observed (serum cortisol; Wk 4, 25 mg BID): 12.311 (5.180) μg/dL; Cortisol, Mean (SD) Percent Change from Baseline (serum cortisol; Wk 4, 25 mg BID): 19.20 (49.39) %; Cortisol, Mean (SD) Observed (serum cortisol; Wk 4, 50 mg QD): 10.875 (3.368) μg/dL; Cortisol, Mean (SD) Percent Change from Baseline (serum cortisol; Wk 4, 50 mg QD): 3.83 (32.48) %; Cortisol, Mean (SD) Observed (serum cortisol; Wk 4, 100 mg QD): 11.842 (4.350) μg/dL; Cortisol, Mean (SD) Percent Change from Baseline (serum cortisol; Wk 4, 100 mg QD): 3.91 (32.33) %; Cortisol, Mean (SD) Observed (serum cortisol; Wk 8, 12.5 mg BID): 12.316 (7.649) μg/dL; Cortisol, Mean (SD) Percent Change from Baseline (serum cortisol; Wk 8, 12.5 mg BID): 20.56 (73.01) %; Cortisol, Mean (SD) Observed (serum cortisol; Wk 8, 12.5 mg QD): 12.511 (8.784) μg/dL; Cortisol, Mean (SD) Percent Change from Baseline (serum cortisol; Wk 8, 12.5 mg QD): 41.84 (90.37) %; Cortisol, Mean (SD) Observed (serum cortisol; Wk 8, 25 mg BID): 15.525 (8.258) μg/dL; Cortisol, Mean (SD) Percent Change from Baseline (serum cortisol; Wk 8, 25 mg BID): 49.57 (77.17) %; Cortisol, Mean (SD) Observed (serum cortisol; Wk 8, 50 mg QD): 15.650 (7.102) μg/dL; Cortisol, Mean (SD) Percent Change from Baseline (serum cortisol; Wk 8, 50 mg QD): 51.35 (78.86) %; Cortisol, Mean (SD) Observed (serum cortisol; Wk 8, 100 mg QD): 16.680 (9.083) μg/dL; Cortisol, Mean (SD) Percent Change from Baseline (serum cortisol; Wk 8, 100 mg QD): 47.29 (92.65) %; Cortisol, Mean (SD) Observed (serum cortisol; Wk 12, 12.5 mg BID): 9.978 (2.742) μg/dL; Cortisol, Mean (SD) Percent Change from Baseline (serum cortisol; Wk 12, 12.5 mg BID): −1.22 (21.10) %; Cortisol, Mean (SD) Observed (serum cortisol; Wk 12, 12.5 mg QD): 9.317 (3.294) μg/dL; Cortisol, Mean (SD) Percent Change from Baseline (serum cortisol; Wk 12, 12.5 mg QD): 18.06 (48.59) %; Cortisol, Mean (SD) Observed (serum cortisol; Wk 12, 25 mg BID): 12.559 (4.287) μg/dL; Cortisol, Mean (SD) Percent Change from Baseline (serum cortisol; Wk 12, 25 mg BID): 22.65 (41.94) %; Cortisol, Mean (SD) Observed (serum cortisol; Wk 12, 50 mg QD): 11.262 (3.590) μg/dL; Cortisol, Mean (SD) Percent Change from Baseline (serum cortisol; Wk 12, 50 mg QD): 6.91 (35.36) %; Cortisol, Mean (SD) Observed (serum cortisol; Wk 12, 100 mg QD): 12.680 (5.659) μg/dL; Cortisol, Mean (SD) Percent Change from Baseline (serum cortisol; Wk 12, 100 mg QD): 8.40 (30.09) %; Cortisol, Mean Observed (serum cortisol; Wk 4, 100 mg QD): 13.464 µg/dL; Cortisol, Mean Percent Change from Baseline (serum cortisol; Wk 4, 100 mg QD): 20.10%; Cortisol, Mean Observed (serum cortisol; Wk 8, 100 mg QD): 25.393 µg/dL; Cortisol, Mean Percent Change from Baseline (serum cortisol; Wk 8, 100 mg QD): 153.35%; Cortisol, Mean Observed (serum cortisol; Wk 10, 100 mg QD): 10.763 µg/dL; Cortisol, Mean Percent Change from Baseline (serum cortisol; Wk 10, 100 mg QD): 1.45%; Effects on serum cortisol (serum cortisol; pooled (Part 1 and Part 2) 100 mg QD safety set (n=60)): no effects on serum cortisol; Effects on serum cortisol (serum cortisol; safety dataset, complete analysis): no effects on serum cortisol; Morning serum cortisol levels (serum cortisol; summary of trial): modestly increased; 11-Deoxycortisol, Mean (SD) Observed (11-deoxycortisol; Wk 4, 12.5 mg BID): 24.89 (18.99) ng/dL; 11-Deoxycortisol, Mean (SD) Percent Change from Baseline (11-deoxycortisol; Wk 4, 12.5 mg BID): 22.56 (118.56) %; 11-Deoxycortisol, Mean (SD) Observed (11-deoxycortisol; Wk 4, 12.5 mg QD): 24.21 (19.92) ng/dL; 11-Deoxycortisol, Mean (SD) Percent Change from Baseline (11-deoxycortisol; Wk 4, 12.5 mg QD): 10.07 (76.22) %; 11-Deoxycortisol, Mean (SD) Observed (11-deoxycortisol; Wk 4, 25 mg BID): 35.23 (33.00) ng/dL; 11-Deoxycortisol, Mean (SD) Percent Change from Baseline (11-deoxycortisol; Wk 4, 25 mg BID): 40.12 (118.32) %; 11-Deoxycortisol, Mean (SD) Observed (11-deoxycortisol; Wk 4, 50 mg QD): 27.15 (13.97) ng/dL; 11-Deoxycortisol, Mean (SD) Percent Change from Baseline (11-deoxycortisol; Wk 4, 50 mg QD): 10.80 (61.95) %; 11-Deoxycortisol, Mean (SD) Observed (11-deoxycortisol; Wk 4, 100 mg QD): 29.29 (23.99) ng/dL; 11-Deoxycortisol, Mean (SD) Percent Change from Baseline (11-deoxycortisol; Wk 4, 100 mg QD): 9.43 (60.26) %; 11-Deoxycortisol, Mean (SD) Observed (11-deoxycortisol; Wk 12, 12.5 mg BID): 20.94 (10.27) ng/dL; 11-Deoxycortisol, Mean (SD) Percent Change from Baseline (11-deoxycortisol; Wk 12, 12.5 mg BID): −14.58 (33.13) %; 11-Deoxycortisol, Mean (SD) Observed (11-deoxycortisol; Wk 12, 12.5 mg QD): 31.56 (29.77) ng/dL; 11-Deoxycortisol, Mean (SD) Percent Change from Baseline (11-deoxycortisol; Wk 12, 12.5 mg QD): 58.62 (122.14) %; 11-Deoxycortisol, Mean (SD) Observed (11-deoxycortisol; Wk 12, 25 mg BID): 31.55 (26.82) ng/dL; 11-Deoxycortisol, Mean (SD) Percent Change from Baseline (11-deoxycortisol; Wk 12, 25 mg BID): 26.81 (72.59) %; 11-Deoxycortisol, Mean (SD) Observed (11-deoxycortisol; Wk 12, 50 mg QD): 26.15 (18.89) ng/dL; 11-Deoxycortisol, Mean (SD) Percent Change from Baseline (11-deoxycortisol; Wk 12, 50 mg QD): 9.25 (111.16) %; 11-Deoxycortisol, Mean (SD) Observed (11-deoxycortisol; Wk 12, 100 mg QD): 31.17 (25.98) ng/dL; 11-Deoxycortisol, Mean (SD) Percent Change from Baseline (11-deoxycortisol; Wk 12, 100 mg QD): 22.05 (64.71) %; 11-deoxycortisol compared with placebo (11-deoxycortisol; Part 1 active treatment arms, Week 4): Transient increases; 11-Deoxycortisol, Mean Observed (11-deoxycortisol; Wk 4, 100 mg QD): 35.96 ng/dL; 11-Deoxycortisol, Mean Percent Change from Baseline (11-deoxycortisol; Wk 4, 100 mg QD): 22.95%; 11-Deoxycortisol, Mean Observed (11-deoxycortisol; Wk 10, 100 mg QD): 27.60 ng/dL; 11-Deoxycortisol, Mean Percent Change from Baseline (11-deoxycortisol; Wk 10, 100 mg QD): −2.13%
